The numbers were not newly measured in patent US11414692B2, “Method and device for characterizing the inhibitory capacity of a molecule on a microorganism” (BIOMERIEUX, priority 2014, dated 2022), which cites them from elsewhere.

Values after ≈ are worked out from the molar mass of the structure shown.

In the data set the test system is E. coli ATCC 25922. The conditions noted are these: manual technique, incubation time 18 to 24 h.

On to `CCn1cc(C(=O)O)c(=O)c2ccc(C)nc21` [nalidixic acid], for which the “MIC concentration recognized by the French government, or "regulatory" MIC” value (“MIC concentration recognized” below) is 2 µg/mL (≈ 8.61 µM). Take gentamicin: the “MIC concentration recognized” value is 0.5 µg/mL. For the molecule `O=C(N[C@H](CO)[C@H](O)c1ccc([N+](=O)[O-])cc1)C(Cl)Cl` [chloramphenicol], the “MIC concentration recognized” value is 4 µg/mL (≈ 12.4 µM).
